Converted amounts (≈) assume the structure as drawn.

The conditions of the data set: buffer; pH 7.4; 200.0 µM.
Turning to `COc1ccccc1N(CC(=O)Nc1cc(S(=O)(=O)N(C)C)ccc1C)S(=O)(=O)c1cccs1`, the solubility (kinetic) was determined as 14.4 µg/mL (≈ 27.5 µM).

In the case of `CN(C)C(=O)c1coc2nc3ccccc3nc12`, the solubility (kinetic) stood at 4 µg/mL (≈ 16.6 µM).

Compound `Cn1c(C(=O)N2CCN(c3ccccn3)CC2)cc2ccccc21` displayed a kinetic solubility of 43.8 µg/mL (≈ 137 µM).

Turning to `COc1cccc(N2C(=O)c3cccnc3C2O)c1` (centres undefined), the kinetic solubility was 34.4 µg/mL (≈ 134 µM).

Consider `CC(C)NCc1nnc(-c2ccccc2Cl)o1`, for which the kinetic solubility is greater than 37.8 µg/mL.

Take `O=C(Nc1cccc(C(=O)O)c1)Nc1cccc2ccccc12`: the solubility (kinetic) was greater than 45.9 µg/mL.

Turning to `CC(C)n1c(N)c(C#N)c2ccc([N+](=O)[O-])cc2c1=O`, the kinetic solubility amounted to 1.6 µg/mL (≈ 5.88 µM).

Turning to `COc1ccc(NC2c3ccccc3C(=O)N2c2ccccn2)cc1` (centres undefined), the solubility (kinetic) was found to be 34.1 µg/mL (≈ 103 µM).

Take `C=CCN1C(=O)C(C)(C)N(C(=O)c2cccc([N+](=O)[O-])c2)c2ccccc21`: the kinetic solubility was 23.5 µg/mL (≈ 64.3 µM).

`COc1ccc(/C=C/C(=O)N2CCOCC2)cc1OC` returned a solubility (kinetic) greater than 41.6 µg/mL.

With `Clc1ccc2c(NCc3ccccc3)ccnc2c1`, the kinetic solubility was determined as 19 µg/mL (≈ 70.7 µM).

For the compound `S=C(NC1CC1)N1CCc2ccccc2C1`, the kinetic solubility was greater than 34.9 µg/mL.

Regarding `CCOc1ncccc1C(=O)Nc1ccc(F)c(F)c1`, the solubility (kinetic) was 6.7 µg/mL (≈ 24.1 µM).

For the compound `CSc1nsc(SC)c1C(=O)Nc1ccc(C(C)(C)C)cc1`, the solubility (kinetic) is less than 0.4 µg/mL.

Compound `O=C(CCc1ccccc1)Nc1ccc(S(=O)(=O)NC2=NCCCCC2)cc1` gave a kinetic solubility of 56.6 µg/mL (≈ 142 µM).

As to `COc1ccc(C(=O)NCC2CCCCC2)cc1S(=O)(=O)N1CCOCC1`, the kinetic solubility is greater than 59.5 µg/mL.

Turning to `O=c1c2ccccc2[nH]c(=S)n1Cc1ccccc1Cl`, the kinetic solubility came to 0.9 µg/mL (≈ 2.97 µM).

The compound `CN(CCOC(=O)c1ccc2c(c1)OCO2)C(C)(C)C.Cl` had a solubility (kinetic) of 41.7 µg/mL.

The compound `CC1=C(C)C(C)=C(C#N)C(=C(C#N)C#N)N1` showed a kinetic solubility greater than 31.5 µg/mL.

For `COc1cc([N+](=O)[O-])ccc1NC(=O)NCc1ccco1`, the kinetic solubility came out at 13.8 µg/mL (≈ 47.4 µM).

Compound `CCOC(=O)CN1C(=O)S/C(=C\c2ccc3c(c2)OCO3)C1=O` came in with a kinetic solubility of 1.8 µg/mL (≈ 5.37 µM).

The compound `CCn1ccnc1CN(C)Cc1nc(-c2cccc(Cl)c2)no1` gave a kinetic solubility of 37.8 µg/mL (≈ 114 µM).

In turn, `CN(C(=O)c1cc(-c2ccc3c(c2)OCO3)on1)c1ccccc1` gave a solubility (kinetic) of 6.8 µg/mL (≈ 21.1 µM).

In turn, `O=C(COC(=O)c1ccc2c(c1)OCO2)Nc1ccccc1F` gave a kinetic solubility of 6.3 µg/mL (≈ 19.9 µM).

On to `O=S(=O)(Cc1noc(-c2ccc(Cl)cc2)n1)Cc1ccco1`, for which the kinetic solubility came to 3 µg/mL (≈ 8.86 µM).

In the case of `Cn1c(O)c(C(=Nc2ccc(F)cc2)c2ccccc2Cl)c(=O)n(C)c1=O`, the solubility (kinetic) came to 1.8 µg/mL (≈ 4.64 µM).

Consider `COC(=O)c1cccc(NC(=O)CSc2nnc(C)n2C)c1`, for which the kinetic solubility was greater than 48.1 µg/mL.

Turning to `CCC(C)NCCCOc1ccc(C)cc1OC` (centres undefined), the kinetic solubility is 35.1 µg/mL (≈ 140 µM).

In turn, `O=C(CN1CCN(c2ccccc2F)CC1)c1ccc(O)c(O)c1` came in with a kinetic solubility of 47.6 µg/mL (≈ 144 µM).

On to `Cc1nc2ccc(C(=O)Nc3ccccc3Cl)cc2s1`, for which the solubility (kinetic) is 14.2 µg/mL (≈ 46.9 µM).

`CN1CCN(C(=O)c2ccc(-c3cccs3)s2)CC1` registered a kinetic solubility greater than 43.9 µg/mL.

On to `Cc1cc(NC(=O)c2c(-c3c(F)cccc3Cl)noc2C)no1`, for which the solubility (kinetic) is greater than 50.4 µg/mL.

Take `Cc1ccc(N2C(=O)CC(Cc3cc(C)cc(C)c3)C2=O)cc1` (centres undefined): the kinetic solubility stood at 8.8 µg/mL (≈ 28.6 µM).

`Cc1nc(-c2ccccc2)[nH]c(=O)c1Oc1ccc(Cl)cc1Cl` came in with a solubility (kinetic) of less than 0.4 µg/mL.

For the compound `Cc1ccccc1N=C1NC(=O)C(CO)(CO)S1`, the solubility (kinetic) was greater than 39.9 µg/mL.

Turning to `c1ccc(CCN2CN=C(Nc3nc4ccccc4s3)NC2)cc1`, the kinetic solubility is less than 0.1 µg/mL.

For the compound `Cc1cc(CNC(=O)c2ccc(C)c([N+](=O)[O-])c2)c2ccccc2n1`, the solubility (kinetic) came out at 20.1 µg/mL (≈ 59.9 µM).

For `CCC1(CC)NC(=O)N(CC(=O)Nc2cccc3ccccc23)C1=O`, the kinetic solubility is greater than 50.9 µg/mL.

Compound `COc1ccc(C(=O)N2CCC(C(=O)Nc3ccc(C)cc3)CC2)cc1` had a solubility (kinetic) greater than 52.9 µg/mL.

Regarding `O=C1CC(c2ccccc2)CN1C(=O)c1cccnc1` (centres undefined), the solubility (kinetic) came to 34.8 µg/mL (≈ 131 µM).

On to `CN(C)c1ccc(C(=O)OCC(=O)N2CCCC2)cc1`, for which the solubility (kinetic) is greater than 41.5 µg/mL.

The compound `O=C(Nc1ccccc1C(=O)Nc1ccncc1)c1ccc([N+](=O)[O-])cc1` gave a kinetic solubility of 11.2 µg/mL (≈ 30.9 µM).

Turning to `N#Cc1ccc(COC(=O)CCc2c[nH]c3ccccc23)cc1`, the solubility (kinetic) amounted to 3 µg/mL (≈ 9.86 µM).

For the compound `Cc1ccc(CN2CCCN(Cc3ccccc3C)S2(=O)=O)cc1`, the solubility (kinetic) came out at 0.5 µg/mL (≈ 1.45 µM).

`CC(=O)c1ccc(NC(=O)c2onc(C)c2Cl)cc1`: the kinetic solubility came to 6.8 µg/mL (≈ 24.4 µM).

For `COc1ccccc1OCC(=O)Nc1ncc(C)s1`, the kinetic solubility was determined as 41.2 µg/mL (≈ 148 µM).

Consider `COc1ccccc1CNC(=O)C(C)Oc1ccccc1` (centres undefined), for which the solubility (kinetic) was greater than 42.8 µg/mL.

Turning to `C=CC(=O)NC(C)(C)CCN1CCOCC1`, the solubility (kinetic) is greater than 33.9 µg/mL.

As to `CC(C)(CC(=O)O)CC(=O)Nc1cc(C(F)(F)F)cc(C(F)(F)F)c1`, the solubility (kinetic) amounted to 46.1 µg/mL (≈ 124 µM).

As to `CC(C)c1ccc(OCC(=O)NCc2ccccc2)cc1`, the solubility (kinetic) stood at 3.2 µg/mL (≈ 11.3 µM).

Take `O=c1[nH]c2ccc(S(=O)(=O)Nc3ccc(Cl)cc3)cc2o1`: the kinetic solubility was greater than 48.7 µg/mL.

With `Cc1ccc(CN2CC(C(=O)Nc3ncccc3C)CC2=O)cc1` (centres undefined), the kinetic solubility is greater than 48.5 µg/mL.

`O=C(/C=C/c1ccco1)NC(=S)Nc1ccc(C(=O)O)cc1`: the kinetic solubility is greater than 47.4 µg/mL.

`CSc1nc(N(C)C)c2ccccc2n1` came in with a solubility (kinetic) of 31.8 µg/mL (≈ 145 µM).

Compound `COCCCNC(=O)c1cc(-c2cccnc2)nc2ccccc12` came in with a kinetic solubility greater than 48.2 µg/mL.

`CCOc1ncccc1C(=O)OCC(=O)NC1CCCCC1`: the kinetic solubility was 34.2 µg/mL (≈ 112 µM).

`Cc1ccc(C)c(C(=O)CN2Cc3ccccc3C2=O)c1` displayed a solubility (kinetic) of 6.1 µg/mL (≈ 21.8 µM).

`O=c1c2[nH]cnc2n(-c2cccc(F)c2)c(=O)n1Cc1ccccc1` gave a solubility (kinetic) greater than 50.4 µg/mL.

The compound `CCC(Oc1ccc(C)cc1)C(=O)Nc1ccc2c(c1)n(C)c(=O)n2C` (centres undefined) registered a solubility (kinetic) greater than 53 µg/mL.

On to `Cc1ccccc1CN1CCc2cc([N+](=O)[O-])ccc21`, for which the kinetic solubility is 1.9 µg/mL (≈ 7.08 µM).

Compound `O=C(CO/N=C/c1ccc(OC(F)F)cc1)NC1CCCC1` came in with a solubility (kinetic) greater than 46.8 µg/mL.

Compound `CC(C)(C)c1ccc(C(=O)NC(=S)N2CCCCCC2)cc1` gave a solubility (kinetic) of 10.1 µg/mL (≈ 31.7 µM).

The compound `O=C(COC(=O)c1c[nH]c2ccccc12)NC1CCCCC1` registered a kinetic solubility of 13.4 µg/mL (≈ 44.6 µM).

The compound `CCN(CC(=O)NCc1ccc(F)cc1)C(=O)c1ccc(C)o1` displayed a kinetic solubility greater than 47.8 µg/mL.

`N#Cc1ccc(NC(=S)NCCN2CCOCC2)cc1` showed a solubility (kinetic) greater than 43.6 µg/mL.

Compound `CC(=O)Nc1ccc(NC(=O)CCOc2cc(C)ccc2C)cc1` gave a solubility (kinetic) of 2 µg/mL (≈ 6.13 µM).

In the case of `CC1CCCC(C)N1/N=C/c1ccc(C#N)cc1` (centres undefined), the kinetic solubility is greater than 36.2 µg/mL.

`C=CCNC(=S)N1CCN(c2ncc(C(F)(F)F)cc2Cl)CC1` yielded a kinetic solubility of 35.7 µg/mL (≈ 97.9 µM).

In turn, `O=C(NC1CCCCNC1=O)c1ccccc1` (centres undefined) came in with a kinetic solubility greater than 34.8 µg/mL.

`Cc1cc(C(=O)Nc2cc(Br)ccc2O)on1` gave a solubility (kinetic) of 7.6 µg/mL (≈ 25.6 µM).

`CCN(CC)C(=S)SC1=CCS(=O)(=O)C1` showed a kinetic solubility of 26.8 µg/mL (≈ 101 µM).

With `COc1ccc(C(CC(=O)O)N2Cc3ccccc3C2=O)cc1` (centres undefined), the kinetic solubility is greater than 46.7 µg/mL.

As to `COc1ccc(NCC(=O)n2c(C)c(C)c3ccccc32)cc1OC`, the kinetic solubility was determined as 4.9 µg/mL (≈ 14.5 µM).

`Cc1cc(C(=O)Nc2c(F)cc(F)cc2Br)cs1` registered a solubility (kinetic) of 25.9 µg/mL (≈ 78 µM).

As usually defined, the solubility (kinetic) is solubility judged after dilution from a stock solution rather than from solid.

The values are drawn from PubChem BioAssay AID1996.
